According to ChEMBL document CHEMBL4190187, “Discovery of pyrazolopyrimidine derivatives as novel inhibitors of ataxia telangiectasia and rad3 related protein (ATR)” (Bioorg Med Chem Lett, 2017):

Key:
[1] = target: Muscle, skeletal receptor tyrosine-protein kinase (Homo sapiens) (UniProt O15146); assay: Inhibition of recombinant human MUSK (530 to end residues) at 1 uM using myelin basic protein as substrate after 40 mins in presence of [gamma-33P]ATP by scintillation counting method
[2] = target: Protein-tyrosine kinase 6 (Homo sapiens) (UniProt Q13882); assay: Inhibition of recombinant full-length human BRK at 10 uM using poly(Glu,Tyr) 4:1 as substrate after 40 mins in presence of [gamma-33P]ATP by scintillation counting method
[3] = target: Serine/threonine-protein kinase PAK 6 (Homo sapiens) (UniProt Q9NQU5); assay: Inhibition of recombinant human PAK6 (382 to end residues) at 1 uM using RRRLSFAEPG as substrate after 40 mins in presence of [gamma-33P]ATP by scintillation counting method
[4] = target: Protein kinase C delta type (Homo sapiens) (UniProt Q05655); assay: Inhibition of recombinant human PKCdelta (2 to end residues) at 1 uM using ERMRPRKRQGSVRRRV as substrate after 40 mins in presence of [gamma-33P]ATP by scintillation counting method
[5] = tested on: Tyrosine-protein kinase BTK (Homo sapiens), Q06187 [R28H]; assay: Inhibition of recombinant full-length human BTK R28H mutant at 1 uM using LSNLYHQGKFLQTFCGSPLYRRR as substrate after 40 mins in presence of [gamma-33P]ATP by scintillation counting method
[6] = target: Serine/threonine-protein kinase ATR (Homo sapiens, UniProt Q13535); assay: Inhibition of human recombinant FLAG-tagged full length ATR expressed in mammalian cell line co-expressing human recombinant cMyc-tagged full length ATRIP
[7] = target: Ribosomal protein S6 kinase alpha-5 (Homo sapiens) (UniProt O75582); assay: Inhibition of recombinant human MSK1 (2 to end residues) at 1 uM using GRPRTSSFAEGKK as substrate after 40 mins in presence of [gamma-33P]ATP by scintillation counting method
Ribosomal protein S6 kinase alpha-5 (Homo sapiens), sequence (O75582 whole entry, looked up): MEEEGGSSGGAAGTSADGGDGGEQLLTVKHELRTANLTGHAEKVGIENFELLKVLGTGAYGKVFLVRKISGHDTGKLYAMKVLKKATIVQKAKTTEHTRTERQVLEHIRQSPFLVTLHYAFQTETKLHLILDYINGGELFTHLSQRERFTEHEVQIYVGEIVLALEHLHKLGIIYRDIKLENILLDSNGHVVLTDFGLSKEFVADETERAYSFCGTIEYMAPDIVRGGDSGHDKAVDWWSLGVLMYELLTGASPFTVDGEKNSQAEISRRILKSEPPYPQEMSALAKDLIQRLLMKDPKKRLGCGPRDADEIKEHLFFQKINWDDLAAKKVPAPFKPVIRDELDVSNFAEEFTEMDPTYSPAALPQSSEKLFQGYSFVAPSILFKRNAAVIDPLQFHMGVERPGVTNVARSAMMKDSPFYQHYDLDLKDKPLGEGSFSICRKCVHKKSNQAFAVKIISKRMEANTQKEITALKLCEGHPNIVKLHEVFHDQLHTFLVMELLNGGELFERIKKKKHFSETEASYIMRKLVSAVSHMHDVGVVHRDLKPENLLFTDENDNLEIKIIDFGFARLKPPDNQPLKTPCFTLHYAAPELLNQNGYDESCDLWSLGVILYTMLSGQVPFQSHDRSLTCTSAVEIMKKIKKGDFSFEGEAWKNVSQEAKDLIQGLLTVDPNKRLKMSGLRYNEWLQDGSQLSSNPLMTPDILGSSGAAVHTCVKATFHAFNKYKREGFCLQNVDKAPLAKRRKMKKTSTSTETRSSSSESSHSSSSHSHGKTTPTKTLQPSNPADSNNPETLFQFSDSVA

[8] = target: cAMP-dependent protein kinase catalytic subunit alpha (Homo sapiens) (UniProt P17612); assay: Inhibition of recombinant full-length human PRKACA at 1 uM using LRRASLG (Kemptide) as substrate after 40 mins in presence of [gamma-33P]ATP by scintillation counting method
[9] = target: Tyrosine-protein kinase ABL1 (Mus musculus) (UniProt P00520); assay: Inhibition of recombinant mouse Abl (27 to end residues) at 1 uM using EAIYAAPFAKKK as substrate after 40 mins in presence of [gamma-33P]ATP by scintillation counting method
Tyrosine-protein kinase ABL1 (Mus musculus), sequence (P00520 whole entry): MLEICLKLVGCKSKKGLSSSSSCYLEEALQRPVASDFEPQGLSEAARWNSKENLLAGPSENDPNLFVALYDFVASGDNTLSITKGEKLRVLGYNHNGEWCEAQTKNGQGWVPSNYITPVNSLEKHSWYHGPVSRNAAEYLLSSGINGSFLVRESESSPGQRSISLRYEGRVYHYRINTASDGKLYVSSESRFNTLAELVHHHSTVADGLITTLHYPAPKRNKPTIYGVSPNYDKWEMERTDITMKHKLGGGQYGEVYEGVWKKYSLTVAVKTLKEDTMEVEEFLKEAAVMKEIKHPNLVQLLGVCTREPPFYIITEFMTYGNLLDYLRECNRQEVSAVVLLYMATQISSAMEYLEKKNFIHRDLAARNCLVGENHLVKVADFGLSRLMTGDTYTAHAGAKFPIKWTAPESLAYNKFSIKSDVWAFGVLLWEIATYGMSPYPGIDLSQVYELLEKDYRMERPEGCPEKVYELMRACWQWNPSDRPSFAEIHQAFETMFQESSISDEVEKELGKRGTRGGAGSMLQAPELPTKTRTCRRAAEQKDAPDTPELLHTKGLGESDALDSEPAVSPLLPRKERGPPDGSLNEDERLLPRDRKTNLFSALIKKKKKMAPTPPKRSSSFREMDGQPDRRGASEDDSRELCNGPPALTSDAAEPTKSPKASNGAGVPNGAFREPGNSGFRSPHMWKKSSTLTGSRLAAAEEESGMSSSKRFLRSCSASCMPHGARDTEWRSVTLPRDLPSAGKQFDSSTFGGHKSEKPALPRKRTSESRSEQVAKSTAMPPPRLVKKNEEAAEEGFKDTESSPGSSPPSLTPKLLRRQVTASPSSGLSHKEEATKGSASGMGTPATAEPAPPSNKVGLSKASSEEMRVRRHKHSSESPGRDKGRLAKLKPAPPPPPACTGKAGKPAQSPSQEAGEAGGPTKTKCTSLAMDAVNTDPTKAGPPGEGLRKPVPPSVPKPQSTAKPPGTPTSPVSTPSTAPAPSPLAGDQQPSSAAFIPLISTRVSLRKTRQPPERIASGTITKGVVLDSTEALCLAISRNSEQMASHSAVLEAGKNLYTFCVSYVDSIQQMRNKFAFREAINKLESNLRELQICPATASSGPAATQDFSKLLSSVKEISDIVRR

[10] = target: Mitogen-activated protein kinase kinase kinase 2 (Homo sapiens) (UniProt Q9Y2U5); assay: Inhibition of recombinant full-length human MEKK2 at 1 uM using myelin basic protein as substrate after 40 mins in presence of [gamma-33P]ATP by scintillation counting method
[11] = target: Serine/threonine-protein kinase haspin (Homo sapiens) (UniProt Q8TF76); assay: Inhibition of recombinant human Haspin (471 to end residues) at 1 uM using RARTLSFAEPG as substrate after 40 mins in presence of [gamma-33P]ATP by scintillation counting method
Serine/threonine-protein kinase haspin (Homo sapiens), sequence (Q8TF76 whole entry, the tested form may be a part): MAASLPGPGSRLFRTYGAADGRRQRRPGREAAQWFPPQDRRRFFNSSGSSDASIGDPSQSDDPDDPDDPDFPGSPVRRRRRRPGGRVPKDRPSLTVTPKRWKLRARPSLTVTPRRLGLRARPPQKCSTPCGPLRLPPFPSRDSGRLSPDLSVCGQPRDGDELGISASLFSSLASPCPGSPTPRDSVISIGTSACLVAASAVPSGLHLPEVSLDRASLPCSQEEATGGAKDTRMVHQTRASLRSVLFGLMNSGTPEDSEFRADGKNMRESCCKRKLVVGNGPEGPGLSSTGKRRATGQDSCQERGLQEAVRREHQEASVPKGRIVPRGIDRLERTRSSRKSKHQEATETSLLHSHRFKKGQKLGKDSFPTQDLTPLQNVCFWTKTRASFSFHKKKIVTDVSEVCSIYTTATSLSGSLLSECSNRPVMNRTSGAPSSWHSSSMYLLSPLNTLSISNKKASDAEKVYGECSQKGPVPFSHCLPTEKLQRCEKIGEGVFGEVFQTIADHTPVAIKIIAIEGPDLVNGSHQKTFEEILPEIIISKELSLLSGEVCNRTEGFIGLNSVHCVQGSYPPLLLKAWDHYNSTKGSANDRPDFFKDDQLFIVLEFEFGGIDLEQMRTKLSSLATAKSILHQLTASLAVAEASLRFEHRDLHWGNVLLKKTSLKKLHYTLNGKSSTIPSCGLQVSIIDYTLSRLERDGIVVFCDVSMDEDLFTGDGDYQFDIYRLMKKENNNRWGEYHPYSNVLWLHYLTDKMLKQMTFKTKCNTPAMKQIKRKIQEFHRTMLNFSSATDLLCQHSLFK

[12] = target: Ephrin type-A receptor 4 (Homo sapiens) (UniProt P54764); assay: Inhibition of recombinant human EPHA4 (601 to 892 residues) at 1 uM using poly(Glu,Tyr) 4:1 as substrate after 40 mins in presence of [gamma-33P]ATP by scintillation counting method
[13] = target: Casein kinase I isoform gamma-1 (Homo sapiens) (UniProt Q9HCP0); assay: Inhibition of recombinant human CK1gamma1 (25 to 355 residues) at 1 uM using KRRRALS(p)VASLPGL as substrate after 40 mins in presence of [gamma-33P]ATP by scintillation counting method
[14] = target: Macrophage-stimulating protein receptor (Homo sapiens) (UniProt Q04912); assay: Inhibition of recombinant human Ron (983 to end residues) at 1 uM using GGMEDIYFEFMGGKKK as substrate after 40 mins in presence of [gamma-33P]ATP by scintillation counting method
Macrophage-stimulating protein receptor (Homo sapiens), sequence (Q04912 25-304 limits assumed): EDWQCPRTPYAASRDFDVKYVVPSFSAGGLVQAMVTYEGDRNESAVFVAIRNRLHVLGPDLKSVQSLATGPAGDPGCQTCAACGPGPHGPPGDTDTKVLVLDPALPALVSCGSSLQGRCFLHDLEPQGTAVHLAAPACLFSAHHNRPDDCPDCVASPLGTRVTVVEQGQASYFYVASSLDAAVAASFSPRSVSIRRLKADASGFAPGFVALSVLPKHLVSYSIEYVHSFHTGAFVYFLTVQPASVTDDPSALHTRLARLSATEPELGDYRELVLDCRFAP
Macrophage-stimulating protein receptor (Homo sapiens), sequence (Q04912 310-1400 limits assumed): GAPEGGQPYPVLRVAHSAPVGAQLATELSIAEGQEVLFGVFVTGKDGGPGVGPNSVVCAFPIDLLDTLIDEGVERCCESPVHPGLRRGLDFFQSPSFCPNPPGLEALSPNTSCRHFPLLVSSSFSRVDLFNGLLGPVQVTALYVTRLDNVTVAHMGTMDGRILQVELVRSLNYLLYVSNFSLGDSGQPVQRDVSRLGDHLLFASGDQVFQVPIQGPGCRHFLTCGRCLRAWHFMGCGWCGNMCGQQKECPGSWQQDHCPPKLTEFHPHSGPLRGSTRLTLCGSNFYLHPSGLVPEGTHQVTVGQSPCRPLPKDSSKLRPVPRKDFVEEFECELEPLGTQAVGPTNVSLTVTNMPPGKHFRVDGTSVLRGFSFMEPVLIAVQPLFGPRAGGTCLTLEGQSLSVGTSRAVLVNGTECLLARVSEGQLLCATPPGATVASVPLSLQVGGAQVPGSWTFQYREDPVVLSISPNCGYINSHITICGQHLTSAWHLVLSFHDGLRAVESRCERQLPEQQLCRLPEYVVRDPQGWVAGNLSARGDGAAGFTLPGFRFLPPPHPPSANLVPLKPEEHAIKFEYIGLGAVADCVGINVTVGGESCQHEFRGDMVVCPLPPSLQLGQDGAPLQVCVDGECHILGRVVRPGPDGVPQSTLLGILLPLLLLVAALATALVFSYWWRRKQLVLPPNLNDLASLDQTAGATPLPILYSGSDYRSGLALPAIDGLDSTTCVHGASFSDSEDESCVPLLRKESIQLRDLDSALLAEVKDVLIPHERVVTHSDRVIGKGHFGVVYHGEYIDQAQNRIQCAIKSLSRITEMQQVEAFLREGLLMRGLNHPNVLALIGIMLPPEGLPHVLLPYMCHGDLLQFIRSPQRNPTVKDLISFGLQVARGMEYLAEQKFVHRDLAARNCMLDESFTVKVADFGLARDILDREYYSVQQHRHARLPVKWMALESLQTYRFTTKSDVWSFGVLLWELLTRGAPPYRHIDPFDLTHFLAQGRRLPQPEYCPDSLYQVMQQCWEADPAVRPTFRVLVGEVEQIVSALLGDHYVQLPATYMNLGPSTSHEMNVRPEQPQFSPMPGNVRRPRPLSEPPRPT

[15] = target: PI3K p110 delta/p85 alpha (Mus musculus) (UniProt P26450+O35904); assay: Inhibition of recombinant full-length mouse p110d/p85a at 1 uM using phosphatidylinositol 4,5-bisphosphate as substrate after 40 mins in presence of [gamma-33P]ATP by scintillation counting method; type: protein-complex assay
[16] = target: Serine/threonine-protein kinase PRP4 homolog (Homo sapiens) (UniProt Q13523); assay: Inhibition of recombinant human PRP4 (663 to end residues) at 1 uM using casein as substrate after 120 mins in presence of [gamma-33P]ATP by scintillation counting method
Serine/threonine-protein kinase PRP4 homolog (Homo sapiens), sequence (Q13523 whole entry, the tested form may be a part): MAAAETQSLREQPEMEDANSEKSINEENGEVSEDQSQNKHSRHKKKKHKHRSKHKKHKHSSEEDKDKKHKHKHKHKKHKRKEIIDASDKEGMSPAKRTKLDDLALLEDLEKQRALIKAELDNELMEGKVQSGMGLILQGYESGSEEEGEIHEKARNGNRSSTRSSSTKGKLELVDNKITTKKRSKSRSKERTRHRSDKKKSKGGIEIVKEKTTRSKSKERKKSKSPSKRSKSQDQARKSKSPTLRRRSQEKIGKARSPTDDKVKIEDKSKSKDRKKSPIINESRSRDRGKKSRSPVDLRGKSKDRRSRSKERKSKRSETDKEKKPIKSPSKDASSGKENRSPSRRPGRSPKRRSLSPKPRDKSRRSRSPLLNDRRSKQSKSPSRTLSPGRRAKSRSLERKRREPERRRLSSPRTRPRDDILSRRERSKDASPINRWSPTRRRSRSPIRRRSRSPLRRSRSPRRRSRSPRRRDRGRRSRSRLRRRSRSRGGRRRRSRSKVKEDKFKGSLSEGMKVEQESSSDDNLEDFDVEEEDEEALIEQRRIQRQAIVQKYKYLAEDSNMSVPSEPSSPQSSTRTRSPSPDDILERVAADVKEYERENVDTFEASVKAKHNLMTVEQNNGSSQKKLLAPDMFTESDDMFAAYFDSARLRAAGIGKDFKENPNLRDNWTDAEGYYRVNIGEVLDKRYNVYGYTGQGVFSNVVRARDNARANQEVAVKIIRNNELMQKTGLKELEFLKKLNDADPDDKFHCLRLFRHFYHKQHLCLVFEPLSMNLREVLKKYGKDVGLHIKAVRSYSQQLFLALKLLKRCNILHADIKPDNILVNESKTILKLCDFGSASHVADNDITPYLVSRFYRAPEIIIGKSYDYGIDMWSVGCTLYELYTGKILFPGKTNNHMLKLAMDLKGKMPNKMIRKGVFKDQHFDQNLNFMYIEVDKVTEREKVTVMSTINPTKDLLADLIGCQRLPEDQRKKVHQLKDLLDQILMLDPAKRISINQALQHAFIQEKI

[17] = target: CDK4/Cyclin D3 (Homo sapiens) (UniProt P11802+P30281); assay: Inhibition of recombinant full-length human CDK4/Cyclin D3 at 1 uM using Rb fragment as substrate after 40 mins in presence of [gamma-33P]ATP by scintillation counting method; type: protein-complex assay
[18] = target: Serine/threonine-protein kinase WNK3 (Homo sapiens) (UniProt Q9BYP7); assay: Inhibition of recombinant human WNK3 (1 to 434 residues) at 1 uM using myelin basic protein as substrate after 40 mins in presence of [gamma-33P]ATP by scintillation counting method
[19] = target: Serine/threonine-protein kinase MRCK alpha (Homo sapiens) (UniProt Q5VT25); assay: Inhibition of recombinant human MRCKalpha (1 to 473 residues) at 1 uM using KKRNRTLTV as substrate after 40 mins in presence of [gamma-33P]ATP by scintillation counting method
[20] = target: [Pyruvate dehydrogenase (acetyl-transferring)] kinase isozyme 4, mitochondrial (Homo sapiens) (UniProt Q16654); assay: Inhibition of recombinant full-length human PDHK4 at 1 uM using KKKYHGHSMSDPGVSYRT as substrate after 40 mins in presence of [gamma-33P]ATP by scintillation counting method
[21] = tested on: PI3-kinase p110-alpha/p85-alpha (Homo sapiens), P27986+P42336 [E545K]; assay: Inhibition of recombinant full-length human p110a E545K mutant/p85a at 1 uM using phosphatidylinositol 4,5-bisphosphate as substrate after 40 mins in presence of [gamma-33P]ATP by scintillation counting method; type: protein-complex assay
[22] = target: Tyrosine-protein kinase JAK1 (Homo sapiens) (UniProt P23458); assay: Inhibition of recombinant human JAK1 (866 to end residues) at 1 uM using GEEPLYWSFPAKKK as substrate after 40 mins in presence of [gamma-33P]ATP by scintillation counting method
[23] = target: Serine/threonine-protein kinase PAK 3 (Homo sapiens) (UniProt O75914); assay: Inhibition of recombinant full-length human PAK3 at 1 uM using RRRLSFAEPG as substrate after 40 mins in presence of [gamma-33P]ATP by scintillation counting method
[24] = target: Dual specificity tyrosine-phosphorylation-regulated kinase 2 (Homo sapiens) (UniProt Q92630); assay: Inhibition of recombinant full-length human DYRK2 at 1 uM using casein as substrate after 40 mins in presence of [gamma-33P]ATP by scintillation counting method
[25] = Half life in mouse at 10 mg/kg, po; type: ADME, organism-based; conditions: in vivo

`CS(=O)(=O)c1ccc(-n2nc(-c3cnc4[nH]ccc4c3)c3c(N)ncnc32)cc1` showed an inhibition [1] of -2%, an inhibition [2] of 102% and an inhibition [3] of 7%. For the same compound, the inhibition [4] was 1%, the inhibition [5] was 5% and the IC50 [6] was 66 nM. It also gave an inhibition [7] of 0%, an inhibition [8] of 4% and an inhibition [9] of 85%. The inhibition [10] was 5%, the inhibition [11] was -9% and the inhibition [12] was 1%. For the same compound, the inhibition [13] was 4%, the inhibition [14] was 2% and the inhibition [15] was 27%. For the same compound, the inhibition [16] was 4%, the inhibition [17] was -9% and the inhibition [18] was 43%. For the same compound, the inhibition [19] was -3%, the inhibition [20] was -1% and the inhibition [21] was 8%. For the same compound, the inhibition [22] was 36%, the inhibition [23] was 4% and the inhibition [24] was -10%. It also gave a half-life [25] of 2.28 h.
